Test results taken from patent US12673945B2, “3-((8-((1H-pyrazol-4-yl)amino)imidazo[1,2-a]pyridin-3-yl)ethinyl)-n-phenylbenzamide derivative, method for preparing same, and pharmaceutical composition containing same as active ingredient for prevention or treatment of cancer” (DAEGU-GYEONGBUK MEDICAL INNOVATION FOUNDATION, priority 2020, dated 2026).

Tests used:
Format in all cases: cell-based
T315I-Bcr-Abl (Ba/F3) = assay: Ba/F3 cell proliferation inhibition; conditions: BaF3; 72 hours, Cell Counting Kit-8
Outline: (§1)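 Parental and T315I-Bcr-Abl Ba/F3 cells, 1×10^4 per well, exposed 72 h at 37 °C to nine 3-fold dilutions, final 0 to 10 μM. Viability by CCK-8 after 2 h, absorbance 450 nm; GI50 fitted from percent of vehicle-treated cells.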

Parental (Ba/F3) = assay: Ba/F3 cell proliferation inhibition; conditions: BaF3; 72 hours, Cell Counting Kit-8
Outline: as §1

TCCS cells = assay: human CML cell proliferation inhibition; conditions: 72 hours, Cell Counting Kit-8
Outline: (§2)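 Read-out: CCK-8, A450 after 2 h, expressed as % of vehicle-treated cells; GI50 fitted from 9-point curves. Compound exposure 72 h at 37 °C, final 0–10 μM, 5-fold dilutions. Bcr-Abl lines TCCS/KOPM28; T315I-Bcr-Abl lines T315I-TCCS/T315I-KOPM28.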

T315I-KOPM28 cells = assay: human CML cell proliferation inhibition; conditions: 72 hours, Cell Counting Kit-8
Outline: as §2

T315I-TCCS cells = assay: human CML cell proliferation inhibition; conditions: 72 hours, Cell Counting Kit-8
Outline: as §2

KOPM28 cells = assay: human CML cell proliferation inhibition; conditions: 72 hours, Cell Counting Kit-8
Outline: as §2

SMILES | GI50 (T315I-Bcr-Abl (Ba/F3)) | GI50 (Parental (Ba/F3)) | GI50 (TCCS cells) | GI50 (T315I-KOPM28 cells) | GI50 (T315I-TCCS cells) | GI50 (KOPM28 cells)
Cc1cc(F)c(C(=O)Nc2cc(N3CCN(C)CC3)cc(C(F)(F)F)c2)cc1C#Cc1cnc2c(Nc3cnn(C)c3)cccn12 [Example 47, 2-fluoro-4-methyl-5-((8-((1-methyl-1H-pyrazol-4-yl)amino)imidazo[1,2-a]pyridin-3-yl)ethynyl)-N-(3-(4-methylpiperazin-1-yl)-5-(trifluoromethyl)phenyl)benzamide] | 50 to 500 nM | 500 to 5000 nM | < 10 nM | 100 nM | 100 nM | < 10 nM
Cc1cc(F)c(C(=O)Nc2cc(N(C)CCN(C)C)cc(C(F)(F)F)c2)cc1C#Cc1cnc2c(Nc3cnn(C)c3)cccn12 [Example 48, N-(3-((2-(dimethylamino)ethyl)(methyl)amino)-5-(trifluoromethyl)phenyl)-2-fluoro-4-methyl-5-((8-((1-methyl-1H-pyrazol-4-yl)amino)imidazo[1,2-a]pyridin-3-yl)ethynyl)benzamide] | 50 to 500 nM | > 5000 nM | < 10 nM | > 100 nM | 100 nM | < 10 nM
Cc1cc(F)c(C(=O)Nc2cc(OCCN(C)C)cc(C(F)(F)F)c2)cc1C#Cc1cnc2c(Nc3cnn(C)c3)cccn12 [Example 50, N-(3-(2-(dimethylamino)ethoxy)-5-(trifluoromethyl)phenyl)-2-fluoro-4-methyl-5-((8-((1-methyl-1H-pyrazol-4-yl)amino)imidazo[1,2-a]pyridin-3-yl)ethynyl)benzamide] | 50 to 500 nM | > 5000 nM | < 10 nM | > 100 nM | 100 nM | < 10 nM
Cc1cc(F)c(C(=O)Nc2cc(OCCCN(C)C)cc(C(F)(F)F)c2)cc1C#Cc1cnc2c(Nc3cnn(C)c3)cccn12 [Example 51, N-(3-(3-(dimethylamino)propoxy)-5-(trifluoromethyl)phenyl)-2-fluoro-4-methyl-5-((8-((1-methyl-1H-pyrazol-4-yl)amino)imidazo[1,2-a]pyridin-3-yl)ethynyl)benzamide] | 50 to 500 nM | > 5000 nM | 100 nM | 100 nM | 100 nM | < 10 nM
Cc1cc(F)c(C(=O)Nc2cc(-c3cnn(C)c3)cc(C(F)(F)F)c2)cc1C#Cc1cnc2c(Nc3cnn(C)c3)cccn12 [Example 54, 2-fluoro-4-methyl-N-(3-(1-methyl-1H-pyrazol-4-yl)-5-(trifluoromethyl)phenyl)-5-((8-((1-methyl-1H-pyrazol-4-yl)amino)imidazo[1,2-a]pyridin-3-yl)ethynyl)benzamide] | 50 to 500 nM | > 5000 nM | < 10 nM | > 100 nM | 100 nM | 100 nM
Cc1cc(F)c(C(=O)Nc2ccc(CN3CCN(CCO)CC3)c(C(F)(F)F)c2)cc1C#Cc1cnc2c(Nc3cnn(C)c3)cccn12 [Example 56, 2-fluoro-N-(4-((4-(2-hydroxyethyl)piperazin-1-yl)methyl)-3-(trifluoromethyl)phenyl)-4-methyl-5-((8-((1-methyl-1H-pyrazol-4-yl)amino)imidazo[1,2-a]pyridin-3-yl)ethynyl)benzamide] | < 50 nM | 500 to 5000 nM | < 10 nM | < 10 nM | < 10 nM | < 10 nM
Cc1cc(F)c(C(=O)Nc2ccc(CN3CCOCC3)c(C(F)(F)F)c2)cc1C#Cc1cnc2c(Nc3cnn(C)c3)cccn12 [Example 57, 2-fluoro-4-methyl-5-((8-((1-methyl-1H-pyrazol-4-yl)amino)imidazo[1,2-a]pyridin-3-yl)ethynyl)-N-(4-(morpholinomethyl)-3-(trifluoromethyl)phenyl)benzamide] | 50 to 500 nM | > 5000 nM | 100 nM | > 100 nM | 100 nM | < 10 nM
Cc1cc(F)c(C(=O)Nc2ccc(CN3CCN(C)C(=O)C3)c(C(F)(F)F)c2)cc1C#Cc1cnc2c(Nc3cnn(C)c3)cccn12 [Example 58, 2-fluoro-4-methyl-5-((8-((1-methyl-1H-pyrazol-4-yl)amino)imidazo[1,2-a]pyridin-3-yl)ethynyl)-N-(4-((4-methyl-3-oxopiperazin-1-yl)methyl)-3-(trifluoromethyl)phenyl)benzamide] | < 50 nM | > 5000 nM | < 10 nM | 100 nM | 100 nM | < 10 nM
Cc1cc(F)c(C(=O)Nc2ccc(CN3CCC(N(C)C)C3)c(C(F)(F)F)c2)cc1C#Cc1cnc2c(Nc3cnn(C)c3)cccn12 (stereo not drawn) [Example 59, N-(4-((3-(dimethylamino)pyrrolidine-1-yl)methyl)-3-(trifluoromethyl)phenyl)-2-fluoro-4-methyl-5-((8-((1-methyl-1H-pyrazol-4-yl)amino)imidazo[1,2-a]pyridin-3-yl)ethynyl)benzamide] | 50 to 500 nM | > 5000 nM | < 10 nM | > 100 nM | 100 nM | < 10 nM

Second part, led by results:

GI50 (T315I-Bcr-Abl (Ba/F3)) | SMILES | GI50 (Parental (Ba/F3)) | GI50 (TCCS cells) | GI50 (T315I-KOPM28 cells) | GI50 (T315I-TCCS cells) | GI50 (KOPM28 cells)
500 to 5000 nM | Cc1cc(F)c(C(=O)Nc2ccc(CN3CCN(S(C)(=O)=O)CC3)c(C(C)(C)C#N)c2)cc1C#Cc1cnc2c(Nc3cnn(C)c3)cccn12 [Example 45, N-(3-(2-cyanopropan-2-yl)-4-((4-(methylsulfonyl)piperazin-1-yl)methyl)phenyl)-2-fluoro-4-methyl-5-((8-((1-methyl-1H-pyrazol-4-yl)amino)imidazo[1,2-a]pyridin-3-yl)ethynyl)benzamide] | > 5000 nM | < 10 nM | > 100 nM | > 100 nM | < 10 nM
50 to 500 nM | Cc1cc(F)c(C(=O)Nc2ccc(Cn3ccnc3)c(C(C)(C)C#N)c2)cc1C#Cc1cnc2c(Nc3cnn(C)c3)cccn12 [Example 46, N-(4-((1H-imidazol-1-yl)methyl)-3-(2-cyanopropan-2-yl)phenyl)-2-fluoro-4-methyl-5-((8-((1-methyl-1H-pyrazol-4-yl)amino)imidazo[1,2-a]pyridin-3-yl)ethynyl)benzamide] | > 5000 nM | < 10 nM | > 100 nM | > 100 nM | < 10 nM
50 to 500 nM | Cc1cc(F)c(C(=O)Nc2cc(N3CCN(C)C(=O)C3)cc(C(F)(F)F)c2)cc1C#Cc1cnc2c(Nc3cnn(C)c3)cccn12 [Example 49, 2-fluoro-4-methyl-5-((8-((1-methyl-1H-pyrazol-4-yl)amino)imidazo[1,2-a]pyridin-3-yl)ethynyl)-N-(3-(4-methyl-3-oxopiperazin-1-yl)-5-(trifluoromethyl)phenyl)benzamide] | 500 to 5000 nM | < 10 nM | 100 nM | < 10 nM | < 10 nM
50 to 500 nM | Cc1cc(F)c(C(=O)Nc2cc(-c3ccncc3)cc(C(F)(F)F)c2)cc1C#Cc1cnc2c(Nc3cnn(C)c3)cccn12 [Example 52, 2-fluoro-4-methyl-5-((8-((1-methyl-1H-pyrazol-4-yl)amino)imidazo[1,2-a]pyridin-3-yl)ethynyl)-N-(3-(pyridin-4-yl)-5-(trifluoromethyl)phenyl)benzamide] | > 5000 nM | < 10 nM | 100 nM | 100 nM | < 10 nM
50 to 500 nM | Cc1cc(F)c(C(=O)Nc2cc(-c3cccnc3)cc(C(F)(F)F)c2)cc1C#Cc1cnc2c(Nc3cnn(C)c3)cccn12 [Example 53, 2-fluoro-4-methyl-5-((8-((1-methyl-1H-pyrazol-4-yl)amino)imidazo[1,2-a]pyridin-3-yl)ethynyl)-N-(3-(pyridin-3-yl)-5-(trifluoromethyl)phenyl)benzamide] | > 5000 nM | < 10 nM | > 100 nM | 100 nM | < 10 nM
< 50 nM | Cc1cc(F)c(C(=O)Nc2ccc(CN3CCN(C)CC3)c(C(F)(F)F)c2)cc1C#Cc1cnc2c(Nc3cnn(C)c3)cccn12 [Example 55, 2-fluoro-4-methyl-5-((8-((1-methyl-1H-pyrazol-4-yl)amino)imidazo[1,2-a]pyridin-3-yl)ethynyl)-N-(4-((4-methylpiperazin-1-yl)methyl)-3-(trifluoromethyl)phenyl)benzamide] | 500 to 5000 nM | < 10 nM | < 10 nM | < 10 nM | < 10 nM
< 50 nM | Cc1cc(F)c(C(=O)Nc2ccc(CN3CCN(S(C)(=O)=O)CC3)c(C(F)(F)F)c2)cc1C#Cc1cnc2c(Nc3cnn(C)c3)cccn12 [Example 60, 2-fluoro-4-methyl-5-((8-((1-methyl-1H-pyrazol-4-yl)amino)imidazo[1,2-a]pyridin-3-yl)ethynyl)-N-(4-((4-(methylsulfonyl)piperazin-1-yl)methyl)-3-(trifluoromethyl)phenyl)benzamide] | 500 to 5000 nM | < 10 nM | > 100 nM | 100 nM | 100 nM
< 50 nM | Cc1cc(F)c(C(=O)Nc2ccc(CN3CCCN(C)CC3)c(C(F)(F)F)c2)cc1C#Cc1cnc2c(Nc3cnn(C)c3)cccn12 [Example 61, 2-fluoro-4-methyl-N-(4-((4-methyl-1,4-diazepan-1-yl)methyl)-3-(trifluoromethyl)phenyl)-5-((8-((1-methyl-1H-pyrazol-4-yl)amino)imidazo[1,2-a]pyridin-3-yl)ethynyl)benzamide] | 500 to 5000 nM | < 10 nM | < 10 nM | 100 nM | < 10 nM
